Series [1] relates to IL6. Briefly: Plasma cytokine ELISA in TNBS colitis rats: IL6. The conditions noted are these: Example 3; oral day 4-10: PB6 1.5 108 CFU/Kg thrice daily; Lysophospholipid 10.3 mg/Kg 2 times daily; combination 25.75 mg/ml 2 times daily; Mesacol 250 mg/Kg once daily. A general note: An ELISA detects its analyte on a solid surface through an enzyme-linked reagent.
Series [2] concerns TNF-α. Briefly: Plasma cytokine ELISA in TNBS colitis rats: TNF-α.
In series [3] the test system is IL10. Briefly: Plasma cytokine ELISA in TNBS colitis rats: IL10.
The subject of series [4] is TNBS induced colitis. Briefly: TNBS induced colitis in rats: colon wet weight and macroscopic colon score. The following applies: for Colon Score / Colon wet weight (g): day 11.
Series [5] concerns IFN-γ. The series is described as follows: Plasma cytokine ELISA in TNBS colitis rats: IFN-γ.
For series [6], the system named is IL1-β. The series is described as follows: Plasma cytokine ELISA in TNBS colitis rats: IL1-β.
The subject of series [7] is TGF-β. The series is described as follows: Plasma cytokine ELISA in TNBS colitis rats: TGF-β.
For series [8], the system named is TNBS induced colitis.
On the set-up of series [9]: species or system Cobb 400 broiler chickens. The conditions noted are these: in vivo.
The test system of series [10] is NFκB. Briefly: Inflammation test without TNF-α (NFκB luciferase reporter). In kind it is cell-based. The conditions noted are these: FIG. 9. Here is the method: An overnight culture of HepG2/NFκB-Luc cells were trypsinized and transferred to 96-well microtiter plate, with 1.5×10^4 cells/well. […] After incubation, the supernatant was removed, and 100 μl of luciferase substrate was added into each well and incubated for 5 minutes. Then 80 μl of the solution was transferred to a clean microtiter plate to determine the florescence unit by Steady-Glo® Luciferase Assay System. The LPC-treated cells without substrate added were used as control.
Background: In a reporter assay the amount or activity of a reporter protein is the signal.

The test system of series [11] is HepG2/NFκB-Luc cells. The series is described as follows: Cytotoxicity test (AlamarBlue reduction rate). In kind it is cell-based. The conditions noted are these: 2 mg/ml (~3636 μM) LPC content; 4 hours; FIG. 8. On the procedure: An overnight culture of HepG2/NFκB-Luc cells were trypsinized and transferred to 96-well microtiter plate, with 1.5×10^4 cells/well. The 96-well microtiter plates were incubated for 24 hours at 37° C. with 5% CO2. Then different concentrations of LPC samples were added into plate wells together with AlamarBlue. The cells were incubated for 4 hours at 37° C. with 5% CO2 before the OD570 and OD600 readings were measured. Culture medium with no LPC added was used as a control. The cytotoxicity was reflected by the amount of AlamarBlue being reduced (reduction rate (RR)) as determined by the following formula:
RR %={[(εoxλ2)(Aλ1)−(εoxλ1)(Aλ2)]}/{[(εredλ1)(A′λ2)−(εredλ2)(A′λ1)]}×100%
where, εredλ1=155677 (absorption coefficient of reduced AlamarBlue at 570 nm) • Εredλ2=14652 (absorption coefficient of reduced AlamarBlue at 600 nm) • εoxλ1=80586 (absorption coefficient of oxidized AlamarBlue at 570 nm) • εoxλ2=117216 (absorption coefficient of oxidized AlamarBlue at 600 nm) • A′λ1=OD570 of the blank control (wells with AlamarBlue but no cells) • A′λ2=OD600 of the blank control (wells with AlamarBlue but no cells).

On the set-up of series [12]: species or system Cobb 400 broiler chickens. The conditions noted are these: in vivo. This is another data set of the same source.
The mark [13] stands for this setting: Example 3, oral day 4-10: PB6 1.5 108 CFU/Kg thrice daily, Lysophospholipid 10.3 mg/Kg 2 times daily, combination 25.75 mg/ml 2 times daily, Mesacol 250 mg/Kg once daily.
[14] abbreviates: Example 4, Lysoprin + Marinol + lutein at 21.5 mg/kg orally thrice daily day 4-10, Mesacol 250 mg/Kg orally once daily.

Marks after values point to notes of the source that are not given here.

Take `Nc1ccc(O)c(C(=O)O)c1` [Mesacol, 5-aminosalicylic acid]: the “IL6 level in Plasma Day 11” value in [1] is 127.4^a picogram/ml. For the same compound, the “TNF-α level in Plasma Day 7” value in series [2] (setting [13]) was 22.77^a picogram/ml; in series [2] (setting [14]), 29±^ab picogram/ml. Further, the “TNF-α level in Plasma Day 11” value in [2] (setting [13]) is reported as 30.27^b picogram/ml; in [2] (setting [14]) it was 28±^a picogram/ml. Further, the “IL10 level in Plasma Day 7” value in [3] (setting [13]) is given as 217.9ab picogram/ml; in [3] (setting [14]), 231^ab picogram/ml. Moreover, the “IL10 level in Plasma Day 11” value in [3] (setting [13]) was 444c picogram/ml; in series [3] (setting [14]), 454^d picogram/ml. For the same compound, the “macroscopic examination of the colonic tissue” value in [4] (Example 3, PB6 (Group 4), Lysophospholipid 10.3 mg/kg (Group 5), combination 21.63 mg/kg (Group 6), Mesacol (Group 7)) was “no lesions with any visible inflammation or injury in the colonic tissue”; in series [4] (Example 4, low dose combination at 21.63 mg/kg (Group 4), Mesacol (Group 6, n=4/6)), “signs of amelioration with reduced localized ulceration”. Also, the “Colon Score” value is 0.833^a in series [4] (Example 3, macroscopic grade 0-5, oral day 4-10: PB6 1.5 108 CFU/Kg thrice daily, Lysophospholipids 10.3 mg/Kg 2 times daily, combination 25.75 mg/ml 2 times daily, Mesacol 250 mg/Kg once daily) and 1.000^a in series [4] (Example 4, grade 0-5, Lysoprin + Marinol + lutein at 21.5 mg/kg orally thrice daily day 4-10, Mesacol 250 mg/Kg orally once daily day 4-10). Further, the “Colon wet weight (g)” value in series [4] (Example 3, oral day 4-10: PB6 1.5 108 CFU/Kg thrice daily, Lysophospholipids 10.3 mg/Kg 2 times daily, combination 25.75 mg/ml 2 times daily, Mesacol 250 mg/Kg once daily) is reported as 0.669^a g; in series [4] (Example 4, Lysoprin + Marinol + lutein at 21.5 mg/kg orally thrice daily day 4-10, Mesacol 250 mg/Kg orally once daily day 4-10), 0.336^ab g. In addition, the figures for the “IFN-γ level in Plasma Day 7” value in series [5] (setting [13]) and in series [5] (setting [14]) were 20.8^a picogram/ml and 37^b picogram/ml, respectively. Also, the “IFN-γ level in Plasma Day 11” value in series [5] (setting [13]) is 40.23^c picogram/ml; in series [5] (setting [14]) it was 40^c picogram/ml. In addition, the “IL1-β level in Plasma Day 7” value in series [6] (setting [13]) is 881.52^b picogram/ml; in series [6] (setting [14]), 567±^a picogram/ml. Further, the entries for the “IL1-β level in Plasma Day 11” value in [6] (setting [13]) and in [6] (setting [14]) were 848.33^bc picogram/ml and 685±^bc picogram/ml, respectively. Besides, in series [7] (setting [13]), the “TGF-β level in Plasma Day 7” value was 17535 ± 2261a picogram/ml. Moreover, in [7] (setting [13]), the “TGF-β level in Plasma Day 11” value is listed as 32542 ± 5294b picogram/ml. Besides, in series [7] (setting [14]), the “TGF level in Plasma Day 7” value is listed as 37^b picogram/ml. Moreover, the “TGF level in Plasma Day 11” value in [7] (setting [14]) was 40^c picogram/ml. For the same compound, the “% Body weight gain/loss Day 1-4” value in [8] (Example 3, TNBS day 1, Day 1-4 is prior to treatment (treatment from day 4)) was −6.6%. In series [8] (Example 3, oral day 4-10: PB6 1.5 10^8 CFU/Kg thrice daily, Lysophospholipids 10.3 mg/Kg 2 times daily, combination 25.75 mg/ml 2 times daily, Mesacol 250 mg/Kg once daily), the “% Body weight gain/loss Day 4-10” value is given as −1.87%. The “mortalities due to severe weight loss” value in series [8] (Example 4, Mesacol 250 mg/kg group, n=6) is recorded as “two”.
In the case of `CC1=C[C@H](O)CC(C)(C)[C@H]1/C=C/C(C)=C/C=C/C(C)=C/C=C/C=C(C)/C=C/C=C(C)/C=C/C1=C(C)C[C@@H](O)CC1(C)C` [Treatment 2, lutein], the “performance (feed intake, weight gain, FCR)” value in series [9] is given as “comparable to that of the control group”.
As for lysophosphatidylcholine [pure LPC], the “inflammation activity (luciferase activity), without TNF-α, highest concentration” value in series [10] (50 μM of LPC, compared to the mock treatment) is “no statistical difference”. The “inflammation activity (luciferase activity), without TNF-α” value in [10] (5, 15 and 50 μM LPC content, 6 hours) was “inflammatory effect at all the three concentrations tested”. Moreover, the “cytotoxicity (AlamarBlue reduction rate)” value in series [11] is reported as “Certain inhibition”.
Consider `CCC(=O)[O-].CCC(=O)[O-].CCC(=O)[O-].[Cr+3]` [Treatment 3, chromium propionate], for which the “relative weight of the thymus” value in series [12] was “higher”. Also, in series [9], the FCR entry is listed as “A similar trend” and the weight gain entry is “A similar trend”.
